Test results from patent US8796467B2, “Compounds” (Boehringer Ingelheim International GmbH, priority 2011, dated 2014).
pEC50: −log10 of the molar value.

biological target: T1, human recombinant mGluR5 (Homo sapiens, UniProt P41594); test: Positive modulation of mGluR5, calcium based FLIPR assay in HEK 293 cell line; conditions: EC50 of the modulation; HEK 293 cells expressing human recombinant mGluR5; glutamate at approximately 5% basal stimulation; peak height of Ca fluorescence signal
T1 construct: expressed in transfected cells; hygromycin and geneticin selection, tetracycline-regulated
Method: The positive modulation of mGluR5 is measured in a HEK 293 cell line expressing human recombinant mGluR5 and is detected with calcium based FLIPR assay. The cells are cultured with DMEM supplemented with 10% FCS, 2 μg/mL tetracycline, 100 μg/mL hygromycin and 500 μg/mL gneticin. The cell culture media is exchanged for tetracycline-free cell culture media 3-7 days before the assay. One day before the assay the cell culture medium is exchanged to DMEM without glutamine and phenol red and supplemented with 10% FCS, 100 μg/mL hygromycin and 500 μg/mL geneticin. On the assay day, the medium of the subconfluent cultures is removed and the cells are detached by addition of 2.5 ml EDTA (0.02%) per 175 cm2 culture flask for 1 minute. The cells are resuspend in Ringer solution (140 mM NaCl, 5 mM KCl, 2.5 mM CaCl2, 1.5 mM MgCl2, 5 mM Glucose, 10 mM Hepes; adjusted to pH 7.4 with NaOH), pooled and Ringer solution added to adjust the volume to 50 mL. The cell suspension is centrifuged for 5 min at 1500 U/min (425 g). The supernatant is removed and the cells washed a second time with 50 ml fresh Ringer solution and centrifuged again as before. The supernatant is again removed and the pellet resuspended in Ringer solution to 1,000,000 cells/ml (1×10^6 cells/mL). The cells are plated onto BD BioCoat Poly-D-Lysine 384 well plates (20,000 cells/well; 20 μl/well). The lid covered plates are then incubated until use at 37° C./10% CO2. For dye loading, 20 μl of Calcium-4 assay kit solution (prepared according to the manufacturer's description in Ringer solution) are added to the cells and the plates are incubated for 80 min 37° C. and then 10 min at room temperature.
Controls, Compound Dilution and Assay Execution:
Each assay plate contained wells with “high” and “low” controls: • Low controls 1% DMSO/ringer solution+basal glutamate activation (defined as 100% CTL). • High controls 10 μM CDPPB+basal glutamate activation (defined as 200% CTL).
Test compounds are dissolved and diluted in DMSO to 100-fold the desired concentrations. In a second step, the compounds are diluted in Ringer solution such that the compounds are 4-fold more concentrated than the desired final assay concentration. The final DMSO concentration was 1%.
20 μl of each compound solution are then transferred to the assay plate and the Ca2+ kinetic is measured to determine any intrinsic compound activity. After 5 min incubation in the FLIPR device, the second stimulation with 20 μl of glutamate in Ringer solution (glutamate concentration adjusted to approximately 5% basal stimulation of the maximal possible glutamate effect) is added and the kinetic Ca2+ response of the wells was measured for the modulation effect.
The peak height of the Ca release related fluorescence signal (9-66) is used for the EC50.
The EC50 of the modulation is calculated over a nonlinear regression with GraphPad Prism (Table 1).

T1 sequence (P41594 21-1212): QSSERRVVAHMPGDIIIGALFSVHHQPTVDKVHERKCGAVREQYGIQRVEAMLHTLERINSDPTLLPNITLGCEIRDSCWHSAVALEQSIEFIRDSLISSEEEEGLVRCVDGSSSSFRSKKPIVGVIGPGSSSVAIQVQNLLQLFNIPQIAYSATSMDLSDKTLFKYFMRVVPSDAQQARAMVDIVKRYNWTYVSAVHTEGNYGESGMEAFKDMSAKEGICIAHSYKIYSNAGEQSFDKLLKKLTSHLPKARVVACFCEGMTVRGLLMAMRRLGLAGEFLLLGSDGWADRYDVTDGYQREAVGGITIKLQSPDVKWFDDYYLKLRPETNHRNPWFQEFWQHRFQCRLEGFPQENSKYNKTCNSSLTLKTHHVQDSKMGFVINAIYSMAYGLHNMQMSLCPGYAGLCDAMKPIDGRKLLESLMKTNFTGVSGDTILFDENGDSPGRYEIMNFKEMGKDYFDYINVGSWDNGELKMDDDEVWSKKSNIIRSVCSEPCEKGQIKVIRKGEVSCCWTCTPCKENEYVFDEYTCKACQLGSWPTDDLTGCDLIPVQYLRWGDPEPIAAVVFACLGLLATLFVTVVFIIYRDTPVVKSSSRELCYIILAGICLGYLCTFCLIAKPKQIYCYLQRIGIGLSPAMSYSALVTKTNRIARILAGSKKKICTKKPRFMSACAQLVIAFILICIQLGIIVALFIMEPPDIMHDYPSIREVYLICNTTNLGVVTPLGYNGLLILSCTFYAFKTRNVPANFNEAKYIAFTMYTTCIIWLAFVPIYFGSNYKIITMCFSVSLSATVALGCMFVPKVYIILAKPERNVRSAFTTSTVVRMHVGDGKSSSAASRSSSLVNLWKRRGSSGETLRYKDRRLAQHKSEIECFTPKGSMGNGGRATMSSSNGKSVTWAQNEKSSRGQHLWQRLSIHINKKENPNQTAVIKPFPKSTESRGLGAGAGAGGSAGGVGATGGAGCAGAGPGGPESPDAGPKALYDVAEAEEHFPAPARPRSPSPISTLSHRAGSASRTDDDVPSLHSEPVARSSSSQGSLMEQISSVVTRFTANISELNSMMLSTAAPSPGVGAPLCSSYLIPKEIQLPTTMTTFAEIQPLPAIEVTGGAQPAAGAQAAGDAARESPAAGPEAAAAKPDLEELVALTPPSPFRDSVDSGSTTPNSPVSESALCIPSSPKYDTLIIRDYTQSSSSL

| pEC50 | Structure (SMILES) |
| --- | --- |
| 6.53 | Cc1nc2c(o1)CN(C(=O)Cn1cc(-c3ccc(F)cc3)nc1-c1ccc(F)cc1)CC2 [Example 7.01.15.] |
| 6.90 | Cc1nc2c(o1)CN(C(=O)Cn1cc(-c3ccc(F)c(C)c3)nc1-c1ccccc1)C2 [Example 7.01.33] |
| 7.21 | Cc1nc2c(o1)CCN(C(=O)Cn1cc(-c3ccc(F)c(C)c3)nc1-c1ccccc1)C2 [Example 7.01.32] |
| 6.65 | Cc1cc(-c2cn(CC(=O)N3CCc4nc(N)sc4CC3)c(-c3ccccc3)n2)ccc1F [Example 7.01.02.] |
| 6.05 | Cc1nc2c(o1)CN(C(=O)Cn1cc(-c3ccc(F)c(C)c3)nc1C1CCCCC1)CC2 [Example 7.01.04.] |
| 7.19 | Cc1nc2c(s1)CN(C(=O)Cn1cc(-c3ccc(F)c(C)c3)nc1-c1ccc(F)cc1)C2 [Example 7.01.14.] |
| 6.11 | CC(=O)Nc1nc2c(s1)CCN(C(=O)Cn1cc(-c3ccc(F)c(C)c3)nc1-c1ccccc1)CC2 [Example 7.01.28] |
| 6.13 | Nc1nc2c(s1)CCN(C(=O)Cn1cc(-c3ccc(F)cc3)nc1-c1ccccc1)CC2 [Example 7.01.08.] |
| 6.03 | Cc1nc2c(o1)CN(C(=O)Cn1cc(-c3ccc(F)cc3)nc1-c1ccccc1)CC2 [Example 7.01.07.] |
| 6.60 | Cc1cccc(-c2cn(CC(=O)N3CCc4nc(C)oc4C3)c(-c3ccccc3)n2)c1 [Example 7.01.22.] |
| 6.79 | Cc1nc2c(o1)CCN(C(=O)Cn1cc(-c3ccc(F)c(C)c3)nc1-c1ccccc1)CC2 [Example 7.01.29] |
| 7.02 | Cc1nc2c(s1)CCN(C(=O)Cn1cc(-c3ccc(F)cc3)nc1-c1ccc(F)cc1)CC2 [Example 7.01.17.] |
| 6.97 | Cc1cc(-c2cn(CC(=O)N3CCc4nc(N)sc4CC3)c(-c3ccc(F)cc3)n2)ccc1F [Example 7.01.11.] |
| 6.24 | Cc1cccc(-c2cn(CC(=O)N3Cc4nc(C)sc4C3)c(-c3ccccc3)n2)c1 [Example 7.01.19.] |
| 7.40 | Cc1nc2c(o1)CN(C(=O)Cn1cc(-c3ccc(F)c(C)c3)nc1-c1ccc(F)cc1)CC2 [Example 7.01.13.] |
| 6.21 | Cc1cc(-c2cn(CC(=O)N3CCc4nc(N)sc4CC3)c(C3CCCCC3)n2)ccc1F [Example 7.01.05.] |
| 6.37 | Cc1cc(-c2cn(CC(=O)N3CCN(c4cccc(C#N)c4)C(=O)C3)c(-c3ccc(F)cc3)n2)ccc1F [Example 7.01.23] |

| pEC50 | Structure (SMILES) |
| --- | --- |
| 6.97 | Cc1nc2c(s1)CN(C(=O)Cn1cc(-c3ccc(F)c(C)c3)nc1-c1ccccc1)CC2 [Example 7.01.31] |
| 6.07 | Cc1nc2c(s1)CCN(C(=O)Cn1cc(-c3ccc(F)c(C)c3)nc1C(C)C)CC2 [Example 7.01.10.] |
| 6.20 | Cc1nc2c(s1)CN(C(=O)Cn1cc(-c3ccc(F)cc3)nc1-c1ccc(F)cc1)C2 [Example 7.01.16.] |
| 7.05 | Cc1nc2c(o1)CN(C(=O)Cn1cc(-c3ccc(F)c(C)c3)nc1-c1ccccc1)CC2 [Example 7.01.03.] |
| 6.59 | Cc1nc2c(s1)CCN(C(=O)Cn1cc(-c3ccc(F)cc3)nc1-c1ccccc1)CC2 [Example 7.01.09.] |
| 6.35 | Nc1nc2c(s1)CCN(C(=O)Cn1cc(-c3ccc(F)cc3)nc1-c1ccc(F)cc1)CC2 [Example 7.01.18.] |
| 7.05 | Cc1nc2c(s1)CCN(C(=O)Cn1cc(-c3ccc(F)c(C)c3)nc1-c1ccccc1)CC2 [Example 7.01.01., 2-(4-(4-fluoro-3-methyl-phenyl)-2-phenyl-imidazol-1-yl)-1-(2-methyl-4,5,7,8-tetrahydro-thiazolo[4,5-d]azepin-6-yl)-ethanone] |
| 7.11 | Cc1nc2c(s1)CCN(C(=O)Cn1cc(-c3ccc(F)c(C)c3)nc1-c1ccc(F)cc1)CC2 [Example 7.01.12.] |
| 7.00 | Cc1nc2c(o1)CN(C(=O)Cn1cc(-c3ccc(F)c(C)c3)nc1-c1ccc(F)cc1)C2 [Example 7.01.34] |
| 6.76 | Cc1cc(-c2cn(CC(=O)N3CCc4nc(N)sc4C3)c(-c3ccccc3)n2)ccc1F [Example 7.01.27] |
| 6.82 | Cc1cc(-c2cn(CC(=O)N3CCc4ncsc4CC3)c(-c3ccccc3)n2)ccc1F [Example 7.01.30] |
| 6.48 | Cc1nc2c(s1)CCN(C(=O)Cn1cc(-c3ccc(F)c(C)c3)nc1C1CCCCC1)CC2 [Example 7.01.06.] |
| 7.36 | Cc1cc(-c2cn(CC(=O)N3CCN(c4ccccn4)C(=O)C3)c(-c3ccc(F)cc3)n2)ccc1F [Example 7.01.26] |
| 7.38 | Cc1cc(-c2cn(CC(=O)N3CCN(c4cc(F)ccn4)C(=O)C3)c(-c3ccc(F)cc3)n2)ccc1F [Example 7.01.25] |
| 7.05 | COc1cccc(N2CCN(C(=O)Cn3cc(-c4ccc(F)c(C)c4)nc3-c3ccc(F)cc3)CC2=O)c1 [Example 7.01.24] |
| 6.97 | Cc1cccc(-c2cn(CC(=O)N3CCc4nc(C)sc4CC3)c(-c3ccccc3)n2)c1 [Example 7.01.20.] |
| 6.56 | Cc1cccc(-c2cn(CC(=O)N3CCc4nc(N)sc4CC3)c(-c3ccccc3)n2)c1 [Example 7.01.21.] |
